The record followed here is patent US20260355180A1, “COMPOSITIONS AND METHODS FOR SPLICEOSOME-TARGETED THERAPIES” (Institute for Cancer Research d/b/a The Research Institute …, priority 2022, published 2026).

In one experiment the test system is H446 SCLC cells. Nature of the experiment: IFN response by rRT-qPCR, H446. The settings on record: dose-dependent. Type of experiment: cell-based, human. An excerpt: FIG. 3A-3D: SF3B1 inhibition induces a potent IFN response and increases expression of IFN-regulated proteins. […] Mean±SEM, two-tailed unpaired Student's t test *p<0.05, **p<0.01, ***p<0.001, ****p<0.0001.
We also observed that SF3B1 inhibition triggers robust anti-tumor response and upregulates IFN-β, IFN-γ, and IFN-responsive genes by real-time reverse-transcription quantitative polymerase chain reaction (rRT-qPCR) in H446 and H82 cells (FIGS. 3A and 3B). […] These observations indicate that spliceosome inhibition is useful as a targeted therapy for SCLCs.

The test system of another experiment is MEF ΔZBP1 cells. Nature of the experiment: pMLKL western blot / necroptosis, MEF ΔZBP1. Type of experiment: cell-based, mouse. The settings on record: 2.5 nM PlaB, 18 hours. As for the experimental part: FIG. 5A-5E: SF3B1 perturbation upregulates A-RNA and Z-nucleic acids in MEFs. (FIG. 5A) 5 nM of PlaB induces A-RNA and Z-Nucleic acids in ΔZBP1 MEF cells. (FIG. 5B) Quantification of A-RNA and Z-Nucleic acids. […] Plots of signal intensity are mean±SEM, two-tailed unpaired Student's t test *p<0.05, ***p<0.001, ****p<0.0001. 18 hours of PlaB treatment for IF, WB and rescue experiments. IF: 5 nM PlaB, WB and rescue experiments: 2.5 nM PlaB.
Since induction of Z-nAs can result in ZBP1-dependent necroptosis, we analyzed induction of necroptosis in necroptotic competent MEFs using spliceosome inhibition. […] We also determined that MEFs ΔZBP1, WT, and Flag-ZBP1 cells treated with PlaB began dying within 24hours after treatment. With MEF Flag-ZBP1 cells showing only 20% survival after 24 hours (FIG. 16).

The next experiment concerns RPP631 cells in mice. The experiment can be described thus: Combination therapy with PlaB and αPD-1 in mice, tumor size. Type of experiment: in vivo. The settings on record: PlaB intra-tumorally and αPD-1 intra-peritoneally, days 14, 17, 20, 22; vs IgG or anti-PD1 only; 24 days. As for the experimental part: FIG. 17: Analysis of combination therapy in mouse model using PlaB and αPD-1.
This combination therapy was tested in RPP631 cells in mice. At day 0, the mice were injected with 8×10^6 RPP631 cells. At days 14, 17, 20, and 22, the mice were injected with PlaB or a vehicle intra-tumorally and IgG or αPD-1 intra-peritoneally. The tumors were then measured over 24 days. (FIG. 17).

As to `CCC(O)C(C)C1OC1CC(C)C=CC=C(C)C1OC(=O)CC(O)CCC(C)(O)C(OC(C)=O)C=CC1C` (stereo not drawn) [PlaB, Pladienolide B], in the experiment with H446 SCLC cells, the IFN response result is “induces potent IFN response”. The “pMLKL (necroptosis)” value with MEF ΔZBP1 cells is given as “not triggered”. The tumor size result in the experiment on RPP631 cells in mice was “significantly reduced tumor size”.
